Measured values taken from patent US20210205404A1, “PHARMACEUTICAL COMPOSITION OF KOR RECEPTOR AGONIST” (JIANGSU HENGRUI MEDICINE CO., LTD., priority 2018, published 2021).
Read-outs that look alike come from different tables or passages of the source. Square brackets hold non-standard residues; d marks the D form. Peptide text beside a SMILES is read from it. * marks the point of attachment. Gly(N-(2R-Ph-propyl)) = C[C@@H](CNCC(=O)O)c1ccccc1; Piperidin1yl(4-NH2,4-COOH) = NC1(C(=O)O)CCN(*)CC1

How the values were obtained:
[1] = Solubility of the active ingredient (statement); type: physicochemical; settings: free compound, background statement
[2] = Experimental: High performance liquid chromatography (HPLC) was determined on an Agilent 1200DAD high pressure liquid chromatograph (Sunfire C18 150×4.6 mm column) and Waters 2695-2996 high pressure liquid chromatograph (Gimini C18 150×4.6 mm column).
The study period was 20 days.

Structure (SMILES)	Solubility (in words) [1]	Purity % ([2]; 40° C., 5 days) [%]	Purity % ([2]; 40° C., 10 days) [%]	Purity % ([2]; 40° C., 20 days) [%]	Purity % ([2]; 60° C., 5 days) [%]	Purity % ([2]; 60° C., 10 days) [%]	Purity % ([2]; 60° C., 20 days) [%]	Purity % ([2]; 4500 Lux, 0 day (start value)) [%]	Purity % ([2]; 4500 Lux, 5 days) [%]	Purity % ([2]; 4500 Lux, 10 days) [%]	Purity % ([2]; 4500 Lux, 20 days) [%]	Stability of the salt (conclusion in words) ([2]; lighting, 40° C. and 60° C., 20 days)
CC(C)C[C@@H](NC(=O)[C@@H](Cc1ccccc1)NC(=O)CNC[C@H](C)c1ccccc1)C(=O)N[C@H](CCCCN)C(=O)N1CCC(N)(C(=O)O)CC1 [Compound A, 4-amino-N—[N^2—[N—[N—[N-((R)-2-phenylpropyl)glycyl]-D-phenylalanyl]-D-leucyl]-D-lysyl]piperidine-4-carboxylic acid] (H-[Gly(N-(2R-Ph-propyl))][dF][dL][dK]-{Piperidin1yl(4-NH2,4-COOH)})	low solubility											
CC(C)C[C@@H](NC(=O)[C@@H](Cc1ccccc1)NC(=O)CNC[C@H](C)c1ccccc1)C(=O)N[C@H](CCCCN)C(=O)N1CCC(N)(C(=O)O)CC1.Cl.Cl.Cl [Hydrochloride (1:3), 4-Amino-N—[N^2—[N—[N—[N-((R)-2-phenylpropyl)glycyl]-D-phenylalanyl]-D-leucyl]-D-lysyl]piperidine-4-carboxylic acid hydrochloride (1:3)] (H-[Gly(N-(2R-Ph-propyl))][dF][dL][dK]-{Piperidin1yl(4-NH2,4-COOH)})		96.54	96.42	96.41	96.42	96.43	96.41	96.50	95.57	94.27	94.24	good stability
